According to PMC5069460, “A novel gene cluster allows preferential utilization of fucosylated milk oligosaccharides in Bifidobacterium longum subsp. longum SC596” (Scientific Reports, 2016):

biological target: T1, BLNG_00936 (SBP) (Bifidobacterium longum, UniProt Q8G848); test: glycan array (CFG Mammalian Glycan Array v5.[…]), anti-GST Alexa […]; format: binding; details: glycan immobilised via spacer; protein 200 ug/ml; pH 7.4, 150 mM NaCl, 2 mM CaCl2, 2 mM MgCl2
T1 construct: gene fruE; tag kept for detection
T1 sequence (Q8G848 23-327 limits assumed): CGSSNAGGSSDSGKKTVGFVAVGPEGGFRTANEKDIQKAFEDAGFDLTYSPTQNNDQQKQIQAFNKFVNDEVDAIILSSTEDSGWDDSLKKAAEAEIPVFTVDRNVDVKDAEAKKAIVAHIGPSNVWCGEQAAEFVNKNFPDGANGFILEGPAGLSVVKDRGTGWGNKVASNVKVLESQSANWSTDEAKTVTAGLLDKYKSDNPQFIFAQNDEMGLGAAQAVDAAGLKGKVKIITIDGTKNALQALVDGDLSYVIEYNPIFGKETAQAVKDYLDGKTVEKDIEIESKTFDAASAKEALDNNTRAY

For `CC(=O)N[C@H]1[C@H](OCCCN)O[C@H](CO)[C@@H](O[C@@H]2O[C@H](CO)[C@H](O)[C@H](O[C@@H]3O[C@H](CO)[C@H](O)[C@H](O)[C@H]3O)[C@H]2O)[C@@H]1O` [Galβ1-3Galβ1-4GlcNAcβ-Sp8], the “Average RFU^b” value was 126 RFU.

biological target: T2, BLNG_00160 (SBP of LNB/GNB cluster) (Bifidobacterium longum, UniProt Q8G3W5); test: as above; format: binding; details: glycan immobilised via spacer; protein 200 ug/ml; pH 7.4, 150 mM NaCl, 2 mM CaCl2, 2 mM MgCl2
T2 construct: gene BL1638; tag kept for detection
T2 sequence (Q8G3W5 24-438): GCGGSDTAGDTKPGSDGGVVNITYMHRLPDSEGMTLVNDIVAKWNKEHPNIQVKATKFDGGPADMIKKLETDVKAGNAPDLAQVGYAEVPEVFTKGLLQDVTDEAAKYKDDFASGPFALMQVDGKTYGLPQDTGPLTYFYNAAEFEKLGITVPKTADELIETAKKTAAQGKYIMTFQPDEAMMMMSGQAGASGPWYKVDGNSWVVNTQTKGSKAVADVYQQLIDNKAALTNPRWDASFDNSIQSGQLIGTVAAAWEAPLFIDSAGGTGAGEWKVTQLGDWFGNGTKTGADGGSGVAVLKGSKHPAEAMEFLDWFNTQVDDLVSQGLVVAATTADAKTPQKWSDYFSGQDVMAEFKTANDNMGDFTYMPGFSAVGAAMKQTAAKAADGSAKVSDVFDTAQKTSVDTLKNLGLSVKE

Going from `CC(=O)N[C@H]1[C@H](OCCCN)O[C@H](COS(=O)(=O)O)[C@@H](O)[C@@H]1O[C@@H]1O[C@H](CO)[C@H](O)[C@H](O)[C@H]1O` [Galβ1-3(6S)GlcNAcβ-Sp8] to `CC(=O)N[C@H]1[C@H](O[C@@H]2[C@H](O)[C@@H](O)[C@H](O[C@H]3[C@H](O)[C@@H](O)[C@H](OCCCN)O[C@@H]3CO)O[C@@H]2CO)O[C@H](CO)[C@H](O)[C@@H]1O[C@@H]1O[C@H](CO)[C@H](O)[C@H](O)[C@H]1O` [Galβ1-3GalNAcβ1-4Galβ1-4Glcβ-Sp8], the “Average RFU^b” value rises from 2646 RFU to 3430 RFU.

Going from `CC(=O)N[C@H]1[C@H](OCCCN)O[C@H](CO)[C@@H](O[C@@H]2O[C@H](CO)[C@H](O)[C@H](O[C@@H]3O[C@H](CO)[C@H](O)[C@H](O)[C@H]3O)[C@H]2O)[C@@H]1O` [Galβ1-3Galβ1-4GlcNAcβ-Sp8] to `CC(=O)N[C@H]1[C@H](OCCN)O[C@H](CO)[C@@H](O[C@@H]2O[C@H](CO)[C@H](O)[C@H](O[C@@H]3O[C@H](CO)[C@@H](O)[C@H](O[C@@H]4O[C@H](CO)[C@H](O)[C@H](O)[C@H]4O)[C@H]3NC(C)=O)[C@H]2O)[C@@H]1O` [Galβ1-3GlcNAcβ1-3Galβ1-4GlcNAcβ-Sp0], the “Average RFU^b” value falls from 4654 RFU to 2029 RFU.

Going from `CC(=O)N[C@H]1[C@H](OCCN)O[C@H](CO)[C@@H](O)[C@@H]1O[C@@H]1O[C@H](CO)[C@H](O)[C@H](O)[C@H]1O` [Galβ1-3GlcNAcβ-Sp0] to Galβ1-3GalNAcβ1-3Gal-Sp21, the “Average RFU^b” value rises from 969 RFU to 2528 RFU.

For Galβ1-3GlcNAcβ1-3Galβ1-4Glcβ-Sp10, the “Average RFU^b” value was 1784 RFU.

biological target: T3, BLNG_01257 (SBP of FHMO cluster) (Bifidobacterium longum, UniProt A0A0M3T5K2); test: as above; format: binding; details: glycan immobilised via spacer; protein 200 ug/ml; pH 7.4, 150 mM NaCl, 2 mM CaCl2, 2 mM MgCl2
T3 construct: tag kept for detection; homolog of Blon_0343 and Blon_2202
T3 sequence (A0A0M3T5K2 23-460 limits assumed): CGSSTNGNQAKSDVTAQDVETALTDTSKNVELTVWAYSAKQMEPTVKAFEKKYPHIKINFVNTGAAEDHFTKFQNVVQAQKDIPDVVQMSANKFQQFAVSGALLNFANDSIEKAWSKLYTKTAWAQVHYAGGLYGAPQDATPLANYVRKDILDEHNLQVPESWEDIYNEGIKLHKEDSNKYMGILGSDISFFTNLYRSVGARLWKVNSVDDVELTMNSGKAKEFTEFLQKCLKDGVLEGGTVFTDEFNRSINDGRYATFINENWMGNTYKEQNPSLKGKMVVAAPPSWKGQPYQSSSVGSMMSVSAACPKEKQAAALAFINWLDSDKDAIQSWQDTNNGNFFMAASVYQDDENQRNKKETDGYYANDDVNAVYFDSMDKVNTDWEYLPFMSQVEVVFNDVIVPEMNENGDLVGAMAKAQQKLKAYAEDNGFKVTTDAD

Compared with `C[C@@H]1O[C@@H](O[C@H]2C(O)O[C@H](CO)[C@H](O)[C@@H]2O)[C@@H](O)[C@H](O)[C@@H]1O` (stereo partly shown) [Fuca1-2Galβ-Sp8], Fuca1-2Galβ1-4Glcβ-Sp0 is lower in “Average RFU^b” value: 2161 RFU for the first, 360 RFU for the second.
